Measured values published in US12329735B2, “Azelaic acid esters in the treatment of insulin resistance” (NEW FRONTIER LABS, LLC, priority 2016, dated 2025).

Experiments:
[1] = system: EpiDerm 3-D human skin tissue; assay: EpiDerm 3-D human skin tissue exposed to croton oil plus azelates, multiplex immunoassays of 47 markers; format: cell-based; settings: croton oil + azelate, 24 hours; medium and tissue lysates
Description: EpiDerm 3-D human skin tissue (MatTek) was exposed to an irritant, croton oil+the azelates for 24 hours. Levels of 47 cytokines and other signaling molecules were measured in cultured media and tissue lysates using multiplex immunoassays. Relative % differences in levels of select markers in medium and tissues after treatment with croton oil plus azelates versus croton oil alone were graphed as heat maps displaying statistically significant/nearly significant differences and distinct patterns of marker modulation. The azelates also exerted chemoprotective activity against croton oil damage on microscopic examination.

[2] = system: PAMP receptors (Toll-Like Receptors) on dendritic cells; assay: PAMP receptor agonist-induced signaling in dendritic cells; format: cell-based; settings: 0.5% DEA, 24 hours
Description: The azelates modulated broad-range signaling of pathogen-associated molecular patterns (PAMP) receptors: Toll-Like Receptors (TLRs) are a class of PAMP receptors. Various PAMP receptor agonists (ligands); nineteen discrete entities, were added to dendritic cells along with 0.5% diethyl azelate (DEA) and measured levels of 34 signaling molecules (ATP, cytokines, chemokines) produced by the cells after 24 hours. To assess if DEA affected PAMP receptor signaling, the ratios of the levels of these molecules were calculated in treated and untreated cells. If DEA had no effect, these ratios would be equal to 1. […] A similar effect of DEA was observed on the ratios of other signaling molecules.

[3] = Oral glucose tolerance test in ethanol-induced insulin resistance state, human self-study; format: in vivo
[4] = Human clinical trial: OGTT in non-diabetic insulin resistant adult males at Day 1 and Day 21; format: in vivo; settings: for Percent change: Day-1 vs. Day-21 average blood glucose: (Day-1 − Day-21)/Day-21 ×100%; for OGTT Blood Glucose Level, Day-21 Group Average: after 21 days 1 mg/kg oral once a day, 3 subjects
Description: A total of eight subjects were screened, out of which four subjects satisfied all the eligibility criteria. Three healthy male volunteers ranging between 18-50 years of age weighing between 80-120 kg were enrolled in the study. At screening, subjects were non-diabetic insulin resistant (NDIR) having a fasting plasma glucose of greater than 75 mg/dL and less than 126 mg/dL and have a compensatory hyperinsulinemia having a mean of two consecutive fasting insulin samples collected between 10 to 30 minutes apart of great than 12 μIU/mL. Subjects had no clinically significant illness that may affect glucose metabolism, insulin sensitivity or makes them otherwise unsuitable for inclusion in the study. Subjects had no history or ongoing significant abnormalities or diseases, in the areas, such as, endocrine, gastrointestinal, cardiovascular, hematological, renal, upper or lower respiratory, neoplasia. Subjects had no uncontrolled blood pressure of greater than 160/95 mmHg at screening. […] Subjects had not used antidiabetic or antihyperglycemic medications in the last 6 months. Subjects had not used tobacco or nicotine containing products in the last 3 months. Subjects were not mentally or legally incapacitated. Subjects had no history of significant psychiatric disorder (within the last 10 years) and had no significant emotional problems at the time of the study. All subjects were evaluable for safety and all blood collections for pharmacokinetic analysis were collected as scheduled. All studies were performed with institutional review board approval and patient consent. The Board was constituted and operated in accordance with the principles and requirements described in the US Code of Federal Regulations (21 CFR Part 56). The board was ICH compliant. This study was an open label test/retest study measuring the change from baseline of selected biomarkers and computational indices of insulin sensitivity of the adult male volunteers in response to multiple doses of diethyl azelate. The study population was restricted to male participants in order to control for the variability associated with the menstrual cycle on the metabolic parameters of interest (Sheu, Chen et al. 2003). Baseline parameters were assessed followed by retest assessments at three weeks (21-days) post-dose. Diethyl azelate (density of 0.973 g/mL at 25° C. or 973 mg/mL) was administered orally by needless syringes once a day at 1 mg/kg to each subject for 21 days starting at Day 1. The dose was calculated as described below, with standard rounding conventions applied to the nearest 0.01 mL: 1 mg/kg×Participant Weight (kg)×(1 mL/973 mg)=X mL to Dose Additional marketed pharmaceutical products were administered as part of the study procedures or as challenge agents associated with the Oral Glucose Tolerance (OGTT). These include 75 g CHO (carbohydrate) Glucola and small volumes of 0.9% Normal Saline administered intravenously secondary to blood collection. Subjects were evaluated with a baseline OGTT on Day 1 and a final OGTT on Day 21. Safety assessments were performed on each subject during the course of the study including clinical examination, vital signs recording, ECG recording, adverse event (AE) monitoring, and concomitant medication assessment. An Oral Glucose Tolerance Test (OGTT) was performed at baseline on Day 1 and Day 21. The OGTT was performed after a fast greater than eight hours and consisted of eight blood collections. Subjects were administrated a bottle of Glucola drink (containing 50% dextrose I 75 g dextrose in 150 mL solution; available as GlucoCrush™) over a course of five minutes, starting at T=0 (first sip of the Glucola). Two blood-draws occurred ˜30 minutes and just prior (˜0 minute) to administration of the Glucola. Post-meal blood collection occurred at 30, 60, 90, 120, and 180 minutes. Samples for glucose and exploratory PK and biomarker samples were collected at all timepoints associated with the OGTT. […]

[5] = Human clinical trial: safety and tolerability; format: in vivo
Description: To evaluate the safety and tolerability of diethyl azelate (immediate release form) when administered orally to insulin resistant adult male volunteers, and to evaluate the change from baseline of selected biomarkers and computational indices of dysmetabolism when diethyl azelate is administered orally to insulin resistant adult male volunteers.
A total of eight subjects were screened, out of which four subjects satisfied all the eligibility criteria. Three healthy male volunteers ranging between 18-50 years of age weighing between 80-120 kg were enrolled in the study. At screening, subjects were non-diabetic insulin resistant (NDIR) having a fasting plasma glucose of greater than 75 mg/dL and less than 126 mg/dL and have a compensatory hyperinsulinemia having a mean of two consecutive fasting insulin samples collected between 10 to 30 minutes apart of great than 12 μIU/mL. Subjects had no clinically significant illness that may affect glucose metabolism, insulin sensitivity or makes them otherwise unsuitable for inclusion in the study. Subjects had no history or ongoing significant abnormalities or diseases, in the areas, such as, endocrine, gastrointestinal, cardiovascular, hematological, renal, upper or lower respiratory, neoplasia. Subjects had no uncontrolled blood pressure of greater than 160/95 mmHg at screening. […] Subjects had not used antidiabetic or antihyperglycemic medications in the last 6 months. […]
Diethyl azelate (density of 0.973 g/mL at 25° C. or 973 mg/mL) was administered orally by needless syringes once a day at 1 mg/kg to each subject for 21 days starting at Day 1. The dose was calculated as described below, with standard rounding conventions applied to the nearest 0.01 mL: 1 mg/kg×Participant Weight (kg)×(1 mL/973 mg)=X mL to Dose
Additional marketed pharmaceutical products were administered as part of the study procedures or as challenge agents associated with the Oral Glucose Tolerance (OGTT). […] Subjects were evaluated with a baseline OGTT on Day 1 and a final OGTT on Day 21. […]

[6] = oral 1 mg/kg once a day, 21 days, three subjects

Which “cytokine levels (IL-1 a, IL-6, IL-8, TNF-a) versus croton oil alone” value [1] does the source give for `CCOC(=O)CCCCCCCC(=O)OCC` [diethyl azelate] here?
Its value is “downregulated multiple cytokines relevant to T2D including IL-1 a, IL-6, IL-8, and TNF-a”.

And the “signaling induced by TLR agonists (ATP ratio treated/untreated cells)” value [2]?
Its value is “decreased signaling induced by most TLR agonists”.

What about the “effect on signaling of PAMP receptors” value ([2]; 34 signaling molecules) of the same compound?
The value was “affected signaling of all PAMP receptors but the effect was greater for the receptors localized on the cell surface than for these inside the cell”.

What about the “percentage decrease of glucose levels vs untreated control state (ethanol-induced insulin resistance)” value (from here on “percentage decrease of glucose levels”) ([3]; fasting (t=0), p=0.02) of the same compound?
The value was 13.6%.

And the “change in blood glucose in induced insulin resistance state (OGTT)” value ([3]; human self-study, 50 ml ethanol, 1 mg/kg oral 8 hours prior to OGTT (75 g glucose), 0, 1, 2, 4 hours)?
The value was “significant decrease of glucose at the baseline (fasting) and highly significant (p<0.0001) at the peak postprandial time point at 2 hours”.

What about the “percentage decrease of glucose levels” value ([3]; t=1 hour, statistically not significant) of the same compound?
The value was 11.4%.

What about the “percentage decrease of glucose levels” value ([3]; t=2 hours, p=6×10−6) of the same compound?
The value was 36.7%.

And the “increase in glucose level vs untreated control state (ethanol-induced insulin resistance)” value ([3]; t=4 hours, not statistically significant)?
Its value is 8.8%.

What about the “Percent change: Day-1 vs. Day-21 average blood glucose” value (from here on “Percent change”) ([4]; 0 min) of the same compound?
The value was 6.5%.

And the “OGTT Blood Glucose Level, Day-21 Group Average” value (from here on “OGTT Blood Glucose Level”) ([4]; 0 min)?
The value was 94.5 mg/dL.

What about the “Percent change” value ([4]; 30 min) of the same compound?
The value was 14.5%.

What about the “OGTT Blood Glucose Level” value ([4]; 30 min) of the same compound?
The value was 148.0 mg/dL.

And the “Percent change” value ([4]; 60 min)?
The value was 15.7%.

And the “OGTT Blood Glucose Level” value ([4]; 60 min)?
Its value is 142.3 mg/dL.

What about the “Percent change” value ([4]; 90 min) of the same compound?
Its value is 46.3%.

What about the “OGTT Blood Glucose Level” value ([4]; 90 min) of the same compound?
Its value is 105.8 mg/dL.

What about the “Percent change” value ([4]; 120 min) of the same compound?
Its value is 15.1%.

And the “OGTT Blood Glucose Level” value ([4]; 120 min)?
Its value is 99.2 mg/dL.

What about the “Percent change” value ([4]; 180 min) of the same compound?
Its value is 18.6%.

And the “OGTT Blood Glucose Level” value ([4]; 180 min)?
Its value is 71.2 mg/dL.

And the “insulin metabolism profile after treatment” value ([4]; all three subjects, after 21 days of treatment)?
Its value is “normal healthy insulin metabolism profiles”.

And the “average blood glucose levels after the 3-weeks treatment course” value ([4]; at T=30 mins and 60 mins, pre-treatment 164 to 170 mg/dl)?
The value was “below 150 mg/dl”.

What about the “Percent change” value ([4]; −5 min) of the same compound?
Its value is 6.2%.

And the “OGTT Blood Glucose Level” value ([4]; −5 min)?
Its value is 94.0 mg/dL.

And the “Percent change” value ([4]; −30 min)?
The value was 6.0%.

What about the “OGTT Blood Glucose Level” value ([4]; −30 min) of the same compound?
The value was 94.1 mg/dL.

And the adverse events observed [5, 6]?
The adverse events observed was “loose stools in one subject”.

And the “drug-related changes in physical examinations, vital signs, or electrocardiograms (ECGs)” value [5, 6]?
The value was “no clinically meaningful drug-related changes”.

And the tolerability ([5]; oral, three male subjects)?
The tolerability was “well tolerated”.
